{"source": "patent US9932381B2", "about": "“Exendin-4 derivatives as selective glucagon receptor agonists” (priority 2014, dated 2018)", "note": "Non-standard residues stand in square brackets, D forms with d. Residues, ends and D or L forms follow the SMILES beside them. Ala(4-thiazolyl) = N[C@@H](Cc1cscn1)C(=O)O; Phe(2-F) = N[C@@H](Cc1ccccc1F)C(=O)O; Nle = CCCC[C@H](N)C(=O)O"}
{"target": "T1, human glucagon receptor (hGLUC R) (Homo sapiens, UniProt P47871)", "T1 construct": "expressed in transfected cells; host or cells: HEK-293", "T1 sequence (P47871 26-477)": "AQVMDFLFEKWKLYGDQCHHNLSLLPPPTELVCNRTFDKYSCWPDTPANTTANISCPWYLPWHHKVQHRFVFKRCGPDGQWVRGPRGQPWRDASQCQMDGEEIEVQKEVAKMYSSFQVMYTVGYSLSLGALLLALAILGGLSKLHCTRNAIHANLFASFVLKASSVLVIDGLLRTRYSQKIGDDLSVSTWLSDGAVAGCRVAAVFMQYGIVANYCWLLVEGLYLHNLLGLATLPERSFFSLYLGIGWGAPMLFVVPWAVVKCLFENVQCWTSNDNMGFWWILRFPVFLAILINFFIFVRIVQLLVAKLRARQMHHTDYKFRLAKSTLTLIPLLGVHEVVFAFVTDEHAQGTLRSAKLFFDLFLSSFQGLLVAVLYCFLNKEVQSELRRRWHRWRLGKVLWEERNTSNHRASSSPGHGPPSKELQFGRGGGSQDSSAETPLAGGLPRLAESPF", "assay": "cAMP response (HTRF) of HEK-293 cells stably expressing human glucagon receptor", "format": "cell-based", "details": "Table 4; read-out: EC50 hGLUC R", "experimental": "cAMP content of cells was determined using a kit from Cisbio Corp. (cat. no. 62AM4PEC) based on HTRF (Homogenous Time Resolved Fluorescence). For preparation, cells were split into T175 culture flasks and grown overnight to near confluency in medium (DMEM/10% FBS). Medium was then removed and cells washed with PBS lacking calcium and magnesium, followed by proteinase treatment with accutase (Sigma-Aldrich cat. no. A6964). Detached cells were washed and resuspended in assay buffer (1×HBSS; 20 mM HEPES, 0.1% BSA, 2 mM IBMX) and cellular density determined. They were then diluted to 400000 cells/ml and 25 μl-aliquots dispensed into the wells of 96-well plates. For measurement, 25 μl of test compound in assay buffer was added to the wells, followed by incubation for 30 minutes at room temperature.", "units": {"EC50": "pM"}}
{"smiles": "CCCC[C@H](NC(=O)[C@H](CCC(N)=O)NC(=O)[C@H](CCCCN)NC(=O)[C@H](CO)NC(=O)[C@H](Cc1ccccc1)NC(=O)[C@H](CC(=O)O)NC(=O)[C@H](CO)NC(=O)[C@@H](NC(=O)[C@H](Cc1ccccc1)NC(=O)[C@@H](NC(=O)CNC(=O)[C@H](CCC(N)=O)NC(=O)[C@H](CO)NC(=O)[C@@H](N)Cc1cscn1)[C@@H](C)O)[C@@H](C)O)C(=O)N[C@@H](CCC(=O)O)C(=O)N[C@@H](CO)C(=O)N[C@@H](CCCNC(=N)N)C(=O)N[C@@H](CCCNC(=N)N)C(=O)N[C@@H](C)C(=O)N[C@@H](CCC(N)=O)C(=O)N[C@@H](CC(=O)O)C(=O)N[C@@H](Cc1ccccc1)C(=O)N[C@H](C(=O)N[C@@H](CCC(=O)O)C(=O)N[C@@H](Cc1c[nH]c2ccccc12)C(=O)N[C@@H](CC(C)C)C(=O)N[C@@H](CC(C)C)C(=O)N[C@@H](C)C(=O)N[C@H](C(=O)NCC(=O)N1CCC[C@H]1C(=O)N[C@@H](CCC(=O)O)C(=O)N[C@@H](CO)C(=O)NCC(=O)N[C@@H](C)C(=O)N1CCC[C@H]1C(=O)N1CCC[C@H]1C(=O)N1CCC[C@H]1C(=O)N[C@@H](CO)C(=O)O)[C@@H](C)O)[C@@H](C)CC", "note": "[SEQ ID NO 13, Tza-S-Q-G-T-F-T-S-D-F-S-K-Q-Nle-ESRRAQDFIEWLLATGPESGAPPPS-OH] (H-[Ala(4-thiazolyl)]SQGTFTSDFSKQ[Nle]ESRRAQDFIEWLLATGPESGAPPPS-OH; N-terminus assumed)", "EC50": 3.1}
{"smiles": "CCCC[C@H](NC(=O)[C@H](CCC(N)=O)NC(=O)[C@H](CCCCN)NC(=O)[C@H](CO)NC(=O)[C@H](Cc1ccc(O)cc1)NC(=O)[C@H](CC(=O)O)NC(=O)[C@H](CO)NC(=O)[C@@H](NC(=O)[C@H](Cc1ccccc1)NC(=O)[C@@H](NC(=O)CNC(=O)[C@H](CCC(N)=O)NC(=O)[C@H](CO)NC(=O)[C@@H](N)Cc1cscn1)[C@@H](C)O)[C@@H](C)O)C(=O)N[C@@H](CCC(=O)O)C(=O)N[C@@H](CO)C(=O)N[C@@H](CCCNC(=N)N)C(=O)N[C@@H](CCCNC(=N)N)C(=O)N[C@@H](C)C(=O)N[C@@H](CCC(N)=O)C(=O)N[C@@H](CCC(=O)O)C(=O)N[C@@H](Cc1ccccc1)C(=O)N[C@H](C(=O)N[C@@H](CCC(=O)O)C(=O)N[C@@H](Cc1c[nH]c2ccccc12)C(=O)N[C@@H](CC(C)C)C(=O)N[C@@H](CC(C)C)C(=O)N[C@@H](C)C(=O)N[C@H](C(=O)NCC(=O)N1CCC[C@H]1C(=O)N[C@@H](CCC(=O)O)C(=O)N[C@@H](CO)C(=O)NCC(=O)N[C@@H](C)C(=O)N1CCC[C@H]1C(=O)N1CCC[C@H]1C(=O)N1CCC[C@H]1C(=O)N[C@@H](CO)C(=O)O)[C@@H](C)O)[C@@H](C)CC", "note": "[SEQ ID NO 17, Tza-S-Q-G-T-F-T-S-D-Y-S-K-Q-Nle-ESRRAQEFIEWLLATGPESGAPPPS-OH]", "EC50": 1}
{"smiles": "CCCC[C@H](NC(=O)[C@H](CCC(N)=O)NC(=O)[C@H](CCCCN)NC(=O)[C@H](CO)NC(=O)[C@H](Cc1ccccc1F)NC(=O)[C@H](CC(=O)O)NC(=O)[C@H](CO)NC(=O)[C@@H](NC(=O)[C@H](Cc1ccccc1)NC(=O)[C@@H](NC(=O)CNC(=O)[C@H](CCC(N)=O)NC(=O)[C@H](CO)NC(=O)[C@@H](N)Cc1cscn1)[C@@H](C)O)[C@@H](C)O)C(=O)N[C@@H](CCC(=O)O)C(=O)N[C@@H](CO)C(=O)N[C@@H](CCCNC(=N)N)C(=O)N[C@@H](CCCNC(=N)N)C(=O)N[C@@H](C)C(=O)N[C@@H](CCC(N)=O)C(=O)N[C@@H](CC(=O)O)C(=O)N[C@@H](Cc1ccccc1)C(=O)N[C@H](C(=O)N[C@@H](CCC(=O)O)C(=O)N[C@@H](Cc1c[nH]c2ccccc12)C(=O)N[C@@H](CC(C)C)C(=O)N[C@@H](CC(C)C)C(=O)N[C@@H](C)C(=O)N[C@H](C(=O)NCC(=O)N1CCC[C@H]1C(=O)N[C@@H](CCC(=O)O)C(=O)N[C@@H](CO)C(=O)NCC(=O)N[C@@H](C)C(=O)N1CCC[C@H]1C(=O)N1CCC[C@H]1C(=O)N1CCC[C@H]1C(=O)N[C@@H](CO)C(=O)O)[C@@H](C)O)[C@@H](C)CC", "note": "[SEQ ID NO 18, Tza-S-Q-G-T-F-T-S-D-2FPhe-S-K-Q-Nle-ESRRAQDFIEWLLATGPESGAPPPS-OH] (H-[Ala(4-thiazolyl)]SQGTFTSD[Phe(2-F)]SKQ[Nle]ESRRAQDFIEWLLATGPESGAPPPS-OH)", "EC50": 3.1}
